Measurements reported in ChEMBL document CHEMBL3885881, “DrugMatrix”.

Species on record: Rattus norvegicus
Assay: DrugMatrix - Regimen: Daily Repeat
Type: toxicity, organism-based, Sprague-Dawley
Parameters: regimen Daily Repeat, gender Male, age 6-8 weeks
Settings: in vivo, po, 85 mg/kg, route oral GAVAGE, dose level Low, vehicle .5 % CMC; for ABSOLUTE BASOPHIL / ABSOLUTE EOSINOPHIL / ABSOLUTE LYMPHOCYTE / ABSOLUTE MONOCYTE / ABSOLUTE SEGMENTED NEUTROPHIL / BASOPHIL / EOSINOPHIL / ERYTHROCYTE COUNT / HEMATOCRIT / HEMOGLOBIN / LEUKOCYTE COUNT / LYMPHOCYTE / MEAN CORPUSCULAR HEMOGLOBIN / MEAN CORPUSCULAR HEMOGLOBIN CONCENTRATION / MEAN CORPUSCULAR VOLUME / MONOCYTE / NEUTROPHIL / NUCLEATED RED BLOOD CELLS / PLATELET COUNT: tissue Blood; for ALANINE AMINOTRANSFERASE / ALBUMIN / ALKALINE PHOSPHATASE / ASPARTATE AMINOTRANSFERASE / BLOOD UREA NITROGEN / CARBON DIOXIDE / CHLORIDE / CHOLESTEROL / CREATINE PHOSPHOKINASE / CREATININE / GLUCOSE / LACTATE DEHYDROGENASE / LIPASE / PHOSPHORUS / POTASSIUM / SODIUM / TOTAL BILIRUBIN / TOTAL PROTEIN / URIC ACID: tissue Plasma

CCCN(CCC)C(=O)C(CCC(=O)O)NC(=O)c1ccccc1 (stereo unspecified) [PROGLUMIDE]
ABSOLUTE BASOPHIL (72 h, time 3 day): 0 CELLS/uL
ABSOLUTE EOSINOPHIL (72 h, time 3 day): 331.33 CELLS/uL
ABSOLUTE LYMPHOCYTE (72 h, time 3 day): 13210.67 CELLS/uL
ABSOLUTE MONOCYTE (72 h, time 3 day): 258 CELLS/uL
ABSOLUTE SEGMENTED NEUTROPHIL (72 h, time 3 day): 933.33 CELLS/uL
BASOPHIL (72 h, time 3 day): 0%
EOSINOPHIL (72 h, time 3 day): 2.33%
ERYTHROCYTE COUNT (72 h, time 3 day): 5.4 x10E6/uL
HEMATOCRIT (72 h, time 3 day): 34.93%
HEMOGLOBIN (72 h, time 3 day): 13.17 G/DL
LEUKOCYTE COUNT (72 h, time 3 day): 14.73 x10E3/uL
LYMPHOCYTE (72 h, time 3 day): 89.67%
MEAN CORPUSCULAR HEMOGLOBIN (72 h, time 3 day): 24.43 pg
MEAN CORPUSCULAR HEMOGLOBIN CONCENTRATION (72 h, time 3 day): 37.7 G/DL
MEAN CORPUSCULAR VOLUME (72 h, time 3 day): 64.7 fL
MONOCYTE (72 h, time 3 day): 1.67%
NEUTROPHIL (72 h, time 3 day): 6.33%
NUCLEATED RED BLOOD CELLS (72 h, time 3 day): 0.33 /100WBC
PLATELET COUNT (72 h, time 3 day): 1332 x10E3/uL
ALANINE AMINOTRANSFERASE (72 h, time 3 day): 42.67 u/L
ALBUMIN (72 h, time 3 day): 4.33 G/DL
ALKALINE PHOSPHATASE (72 h, time 3 day): 435.67 u/L
ASPARTATE AMINOTRANSFERASE (72 h, time 3 day): 72.33 u/L
BLOOD UREA NITROGEN (72 h, time 3 day): 16 mg/dL
CARBON DIOXIDE (72 h, time 3 day): 25.33 mmol/L
CHLORIDE (72 h, time 3 day): 104.33 MEQ/L
CHOLESTEROL (72 h, time 3 day): 60.67 mg/dL
CREATINE PHOSPHOKINASE (72 h, time 3 day): 288 u/L
CREATININE (72 h, time 3 day): 0.18 mg/dL
GLUCOSE (72 h, time 3 day): 161.67 mg/dL
LACTATE DEHYDROGENASE (72 h, time 3 day): 90.33 u/L
LIPASE (72 h, time 3 day): 9 u/L
PHOSPHORUS (72 h, time 3 day): 13.33 mg/dL
POTASSIUM (72 h, time 3 day): 6.41 MEQ/L
SODIUM (72 h, time 3 day): 144.2 MEQ/L
TOTAL BILIRUBIN (72 h, time 3 day): 0.23 mg/dL
TOTAL PROTEIN (72 h, time 3 day): 5.93 G/DL
URIC ACID (72 h, time 3 day): 1.67 mg/dL
ABSOLUTE BASOPHIL (120 h, time 5 day): 0 CELLS/uL
ABSOLUTE EOSINOPHIL (120 h, time 5 day): 53.33 CELLS/uL
ABSOLUTE LYMPHOCYTE (120 h, time 5 day): 15727.33 CELLS/uL
ABSOLUTE MONOCYTE (120 h, time 5 day): 190.67 CELLS/uL
ABSOLUTE SEGMENTED NEUTROPHIL (120 h, time 5 day): 1162 CELLS/uL
BASOPHIL (120 h, time 5 day): 0%
EOSINOPHIL (120 h, time 5 day): 0.33%
ERYTHROCYTE COUNT (120 h, time 5 day): 5.46 x10E6/uL
HEMATOCRIT (120 h, time 5 day): 35.63%
HEMOGLOBIN (120 h, time 5 day): 13.3 G/DL
LEUKOCYTE COUNT (120 h, time 5 day): 17.13 x10E3/uL
LYMPHOCYTE (120 h, time 5 day): 92%
MEAN CORPUSCULAR HEMOGLOBIN (120 h, time 5 day): 24.37 pg
MEAN CORPUSCULAR HEMOGLOBIN CONCENTRATION (120 h, time 5 day): 37.4 G/DL
MEAN CORPUSCULAR VOLUME (120 h, time 5 day): 65.13 fL
MONOCYTE (120 h, time 5 day): 1%
NEUTROPHIL (120 h, time 5 day): 6.67%
NUCLEATED RED BLOOD CELLS (120 h, time 5 day): 0 /100WBC
PLATELET COUNT (120 h, time 5 day): 1361 x10E3/uL
ALANINE AMINOTRANSFERASE (120 h, time 5 day): 50.67 u/L
ALBUMIN (120 h, time 5 day): 4 G/DL
ALKALINE PHOSPHATASE (120 h, time 5 day): 346.33 u/L
ASPARTATE AMINOTRANSFERASE (120 h, time 5 day): 79 u/L
BLOOD UREA NITROGEN (120 h, time 5 day): 17 mg/dL
CARBON DIOXIDE (120 h, time 5 day): 24.67 mmol/L
CHLORIDE (120 h, time 5 day): 108 MEQ/L
CHOLESTEROL (120 h, time 5 day): 61.67 mg/dL
CREATINE PHOSPHOKINASE (120 h, time 5 day): 409.67 u/L
CREATININE (120 h, time 5 day): 0.19 mg/dL
GLUCOSE (120 h, time 5 day): 187 mg/dL
LACTATE DEHYDROGENASE (120 h, time 5 day): 92.33 u/L
LIPASE (120 h, time 5 day): 8 u/L
PHOSPHORUS (120 h, time 5 day): 13.57 mg/dL
POTASSIUM (120 h, time 5 day): 5.82 MEQ/L
SODIUM (120 h, time 5 day): 144.9 MEQ/L
TOTAL BILIRUBIN (120 h, time 5 day): 0.27 mg/dL
TOTAL PROTEIN (120 h, time 5 day): 6.03 G/DL
URIC ACID (120 h, time 5 day): 1.67 mg/dL
